Measured values published in patent publication US5506102A (priority 1993, dated 1996).

Biological target: T1, human progesterone receptor isoform PR-A (Homo sapiens, UniProt P06401)
T1 sequence (P06401 165-933): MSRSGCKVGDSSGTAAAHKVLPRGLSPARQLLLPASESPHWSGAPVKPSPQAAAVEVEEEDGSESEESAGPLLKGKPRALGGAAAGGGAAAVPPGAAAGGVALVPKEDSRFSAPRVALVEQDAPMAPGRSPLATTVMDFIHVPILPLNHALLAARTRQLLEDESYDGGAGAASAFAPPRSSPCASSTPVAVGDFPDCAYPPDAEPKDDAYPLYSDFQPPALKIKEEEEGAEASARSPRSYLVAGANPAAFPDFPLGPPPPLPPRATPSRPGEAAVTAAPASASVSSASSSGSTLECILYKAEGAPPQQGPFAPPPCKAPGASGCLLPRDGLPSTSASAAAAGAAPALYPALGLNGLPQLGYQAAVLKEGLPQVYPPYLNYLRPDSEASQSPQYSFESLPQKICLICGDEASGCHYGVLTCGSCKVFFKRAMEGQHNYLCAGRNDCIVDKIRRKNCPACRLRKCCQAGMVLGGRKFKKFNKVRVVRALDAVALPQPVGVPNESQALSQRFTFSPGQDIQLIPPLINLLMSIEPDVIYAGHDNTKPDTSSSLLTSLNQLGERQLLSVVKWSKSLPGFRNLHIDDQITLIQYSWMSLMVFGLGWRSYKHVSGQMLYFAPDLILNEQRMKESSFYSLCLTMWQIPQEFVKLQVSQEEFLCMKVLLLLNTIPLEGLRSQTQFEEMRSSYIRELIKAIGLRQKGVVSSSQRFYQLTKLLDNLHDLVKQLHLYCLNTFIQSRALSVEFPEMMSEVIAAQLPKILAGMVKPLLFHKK
Assay: PR-A transactivation of MMTV-LUC reporter, transient transfection
Assay type: cell-based
Settings: 10^-7 M progesterone
Description: Cells were seeded in 12-well, 96-well or 10 cm tissue culture plates. […] 20 μg of DNA/ml of transfection buffer were used in each transfection reaction. In this mix, the concentration of the luciferase plasmids and that of the internal control plasmid pCH110 (Pharmacia, Inc.), which contains the gene for the β-galactosidase enzyme, remained constant ([…] of each plasmid DNA), while the receptor plasmid concentration varied as indicated for each experiment. Different amounts of receptor parental plasmid, pSV2-neo (Dr. Bert O'Malley, Baylor College of Medicine, Houston, Tex.) was included to keep constant the total amount of the SV40 enhancer vectors. pGEM4 plasmid DNA (Promega Biotech, Madison, Wis.) was added to balance the total DNA concentration to 20 g/reaction. For the 96-well plate experiments, transfections were performed on a Biomek 1000 Automated Laboratory Workstation (Beckman Instruments, Fullerton, Calif.).
Cells were seeded 24 hours prior to transfection in the fiat-bottom tissue culture plates ([…]) in phenol red-free DMEM containing 10% FCS. […] Using calcium phosphate co-precipitation, DNA solution was added dropwise with vortexing into an equal volume of 2X HBS pH 6.9 (280 mM NaCl. 50 mM HEPES, 1.5 mM Na2 HPO4) and precipitates were allowed to form for 20 minutes. Cells were transfected ( […] of DNA mix/well) for 6 hours and then washed with phosphate-bufferedsaline (PBS) to remove the precipitate. Cells were incubated for an additional 24 hours in phenol red-free medium containing 10% charcoal-treated FCS, with or without hormones as indicated in the text. Cell extracts were prepared as described by Berger et al., Supra, and assayed for luciferase and β-galactosidase activities. All determinations were performed in triplicates in at least two independent experiments, and were normalized for transfection efficiency by using β-galactosidase as an internal control.

CC(=O)[C@H]1CC[C@H]2[C@@H]3CCC4=CC(=O)CC[C@]4(C)[C@H]3CC[C@]12C [progesterone]
progesterone-induced activation of the MMTV promoter by PR-A (CV-1 cells, FIG. 2A): no progesterone-induced activation of the MMTV promoter by PR-A was observed
maximal induction (HeLa cells, MMTV, 250 ng of transfected DNA, FIG. 2B): ten-fold
activation of the MMTV promoter by PR-A (HepG2 cells, FIG. 2C): both PR-A and PR-B functioned as efficient activators
